Values of other authors in patent publication US6809181B2, “Human beta-defensin-3 (HBD-3), a highly cationic beta-defensin antimicrobial peptide” (University of Iowa Research Foundation, priority 2000, dated 2004).
Converted amounts (≈) assume the structure as drawn. Read-outs that look alike come from different tables or passages of the source.

Columns and labels:
Bordetella pertussis = conditions: n=32; r10; unit assumed; cited from earlier work
Streptococcus pneumoniae = conditions: cited from earlier work; for MIC90: unit assumed
[1] = system: Branhamella (Moraxella) catarrhalis (non β-lactamase producer); conditions: cited from earlier work
Enterococcus faecalis = conditions: cited from earlier work
Borrelia burgdorferi = conditions: n=10; r12; unit assumed; cited from earlier work
Neisseria meningitidis = conditions: n=19, r90, cited from earlier work
Nocardia asteroides = conditions: n=78, r91, cited from earlier work
Listeria monocytogenes = conditions: cited from earlier work; for MIC50 / MIC90: unit assumed
Streptococcus pyogenes = conditions: cited from earlier work
Bordetella parapertussis = conditions: n=46; r9; unit assumed; cited from earlier work
[2] = system: Haemophilus parainfluenzae; conditions: n=13, r68, cited from earlier work
Bacillus spp. = conditions: cited from earlier work
Mycoplasma pneumoniae = conditions: cited from earlier work
[3] = system: Branhamella (Moraxella) catarrhalis (β-lactamase producer); conditions: cited from earlier work

CC[C@H]1OC(=O)[C@H](C)[C@@H](O[C@H]2C[C@@](C)(OC)[C@@H](O)[C@H](C)O2)[C@H](C)[C@@H](O[C@@H]2O[C@H](C)C[C@H](N(C)C)[C@H]2O)[C@](C)(O)C[C@@H](C)C(=O)[C@H](C)[C@@H](O)[C@]1(C)O [ERYTHROMYCIN, erythromycin]
MIC50 (Bordetella pertussis): 0.25 µg/mL (≈ 0.341 µM)
Range (Streptococcus pneumoniae; n=26, r129): 0.015-0.25
MIC90 (Streptococcus pneumoniae; n=26, r129): 0.06 µg/mL (≈ 0.0818 µM)
Range (Streptococcus pneumoniae; n=50, r127): 0.015-0.06
MIC90 (Streptococcus pneumoniae; n=50, r127): 0.03 µg/mL (≈ 0.0409 µM)
MIC90 (Streptococcus pneumoniae; n=50, r130): 0.06 µg/mL (≈ 0.0818 µM)
Range (Streptococcus pneumoniae; n=58, r125): 0.03-0.25
Range ([1]; n=14, r23): 0.06-1
Range ([1]; n=16, r26): 0.015-1
Range ([1]; n=40, r17): 0.06-0.5
Range (Enterococcus faecalis; n=26, r47): 1-64
MIC50 (Enterococcus faecalis; n=26, r47, unit assumed): 1 µg/mL (≈ 1.36 µM)
MIC90 (Enterococcus faecalis; n=26, r47, unit assumed): 4 µg/mL (≈ 5.45 µM)
Range (Enterococcus faecalis; n=50, r48): 0.06-64
MIC50 (Enterococcus faecalis; n=50, r48, unit assumed): 4 µg/mL (≈ 5.45 µM)
MIC50 (Enterococcus faecalis; n=86, r49, unit assumed): 1 µg/mL (≈ 1.36 µM)
MIC50 (Enterococcus faecalis; n=97, r50, unit assumed): 2 µg/mL (≈ 2.73 µM)
MIC50 (Borrelia burgdorferi): 0.03 µg/mL (≈ 0.0409 µM)
MIC90 (Borrelia burgdorferi): 0.06 µg/mL (≈ 0.0818 µM)
Range (Neisseria meningitidis): 0.5-8
MIC50 (Neisseria meningitidis; unit assumed): 1 µg/mL (≈ 1.36 µM)
MIC90 (Neisseria meningitidis; unit assumed): 8 µg/mL (≈ 10.9 µM)
Range (Nocardia asteroides): 0.25-8
MIC50 (Nocardia asteroides; unit assumed): 8 µg/mL (≈ 10.9 µM)
MIC90 (Nocardia asteroides; unit assumed): 8 µg/mL (≈ 10.9 µM)
Range (Listeria monocytogenes; n=13, r74): 0.5-1
MIC50 (Listeria monocytogenes; n=13, r74): 0.5 µg/mL (≈ 0.681 µM)
MIC90 (Listeria monocytogenes; n=13, r74): 0.5 µg/mL (≈ 0.681 µM)
MIC50 (Listeria monocytogenes; n=16, r75): 0.25 µg/mL (≈ 0.341 µM)
MIC90 (Listeria monocytogenes; n=16, r75): 1 µg/mL (≈ 1.36 µM)
Range (Listeria monocytogenes; n=65, r76): 0.06-32
MIC90 (Listeria monocytogenes; n=65, r76): 32 µg/mL (≈ 43.6 µM)
Range (Streptococcus pyogenes; n=19, r131): 0.03-0.25
Range (Streptococcus pyogenes; n=20, r132): 0.03-0.25
Range (Streptococcus pyogenes; n=20, r134): 0.06-32
MIC90 (Streptococcus pyogenes; n=20, r134, unit assumed): 32 µg/mL (≈ 43.6 µM)
Range (Streptococcus pyogenes; n=33, r133): 0.015-0.03
MIC50 (Streptococcus pyogenes; n=33, r133, unit assumed): 0.03 µg/mL (≈ 0.0409 µM)
MIC90 (Streptococcus pyogenes; n=33, r133, unit assumed): 0.03 µg/mL (≈ 0.0409 µM)
MIC50 (Bordetella parapertussis): 0.25 µg/mL (≈ 0.341 µM)
Range [2]: 0.5-8
MIC50 ([2]; unit assumed): 2 µg/mL (≈ 2.73 µM)
MIC90 ([2]; unit assumed): 4 µg/mL (≈ 5.45 µM)
Range (Bacillus spp.; n=20, r6): 0.03-2
MIC90 (Bacillus spp.; n=20, r6, unit assumed): 2 µg/mL (≈ 2.73 µM)
MIC50 (Bacillus spp.; unit assumed): 0.25 µg/mL (≈ 0.341 µM)
Range (Mycoplasma pneumoniae; n=10, r79): 0.06-8
MIC90 (Mycoplasma pneumoniae; n=10, r79, unit assumed): 0.06 µg/mL (≈ 0.0818 µM)
Range (Mycoplasma pneumoniae; n=14, r80): 0.004-0.03
MIC50 (Mycoplasma pneumoniae; n=14, r80, unit assumed): 0.004 µg/mL (≈ 0.00545 µM)
MIC90 (Mycoplasma pneumoniae; n=14, r80, unit assumed): 0.004 µg/mL (≈ 0.00545 µM)
Range ([3]; n=47, r29): 0.06-1
Range ([3]; n=58, r32): 0.03-0.25
Range ([3]; n=160, r35): 0.06-8
